Converted amounts (≈) assume the structure as drawn. Values belong to the compound of their own block, whether it stands above or below them.
What was measured:
[1] = test system: H9 (acute lymphoblastic leukemia, ALL); experiment: Leukemia cell growth inhibition, MTT, 72 h (Example 5); assay type: cell-based, human; conditions: Homo sapiens; 72 h, MTT
How it was run: (§1)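 6000 cells per well were seeded in RPMI 1640 with 10% FBS, exposed to graded concentrations of 5-substituted tetrandrine derivatives, and held 72 hours at 37° C, 5% CO2. Viable cell concentration was then measured by MTT.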

[2] = test system: Jurkat (acute lymphoblastic leukemia, ALL); experiment: as above; assay type: cell-based, human; conditions: Homo sapiens, Jurkat; 72 h, MTT
How it was run: as §1

[3] = test system: K562/adr (drug-resistant, chronic myeloid leukemia, CML); experiment: as above; assay type: cell-based, human; conditions: Homo sapiens, K562/Adr; 72 h, MTT
How it was run: as §1

[4] = test system: Kasumi-1 (acute myeloid leukemia M2 type, AML-M2); experiment: as above; assay type: cell-based, human; conditions: Homo sapiens, Kasumi 1
How it was run: as §1

[5] = test system: NB4 (acute promyelocytic leukemia, AML); experiment: as above; assay type: cell-based, human; conditions: Homo sapiens; 72 h, MTT
How it was run: as §1

[6] = test system: RPMI8226 (multiple myeloma); experiment: Multiple myeloma cell growth inhibition, MTT, 72 h (Example 6); assay type: cell-based, human; conditions: Homo sapiens, RPMI-8226; 72 h, MTT, RPMI8226
How it was run: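 RPMI8226 cells (6000 per well) in RPMI 1640 with 10% FBS were exposed to a range of tetrandrine derivative concentrations for 72 h at 37 °C under 5% CO2. Viable cell concentration was then measured by MTT.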

[7] = test system: CaES-17 (esophageal cancer cell); experiment: Solid tumor cell growth inhibition, MTT, 72 h (Example 7); assay type: cell-based, human; conditions: Homo sapiens, CaEs17; 72 h, MTT, CAES-17
How it was run: (§2)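 MTT viability after 72 h compound exposure; 4000 cells/well seeded 24 h beforehand in DMEM high glucose, 10% FBS, 37 °C, 5% CO2. Untreated control taken as 100%.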

[8] = test system: Hep-2 (laryngeal carcinoma); experiment: as above; assay type: cell-based, human; conditions: Homo sapiens; 72 h, MTT, Hep 2
How it was run: as §2

MG63 (osteosarcoma) = experiment: as above; assay type: cell-based, human; conditions: Homo sapiens; 72 h, MTT, MG-63
How it was run: as §2

[9] = test system: PANC-1 (pancreatic cancer); experiment: as above; assay type: cell-based, human; conditions: for IC50 / IC90: Homo sapiens, 72 h, MTT, PANC-1
How it was run: as §2

PC-3 (prostate cancer) = experiment: as above; assay type: cell-based, human; conditions: for IC50 / IC90: Homo sapiens, 72 h, MTT, PC-3
How it was run: as §2

A549 (human lung cancer) = experiment: as above; assay type: cell-based; conditions: Homo sapiens; 72 h, MTT, A549
How it was run: as §2

[10] = test system: Becap37 (human breast cancer cell); experiment: as above; assay type: cell-based; conditions: Homo sapiens; 72 h, MTT, Becap-37
How it was run: as §2

[11] = test system: CNE (nasopharyngeal carcinoma cell); experiment: as above; assay type: cell-based; conditions: Homo sapiens
How it was run: as §2

[12] = test system: Hela (human cervical cancer cell); experiment: as above; assay type: cell-based; conditions: Homo sapiens; 72 h, MTT, Hela
How it was run: as §2

[13] = test system: Huh7 (human liver cancer cell); experiment: as above; assay type: cell-based; conditions: Homo sapiens; 72 h, MTT, Huh-7
How it was run: as §2

[14] = test system: MGC 803 (human gastric cancer cell); experiment: as above; assay type: cell-based; conditions: Homo sapiens
How it was run: as §2

[15] = test system: RKO (human colon adenocarcinoma cell); experiment: as above; assay type: cell-based; conditions: Homo sapiens; 72 h, MTT, RKO
How it was run: as §2

[16] = test system: SK-OV-3 (ovarian cancer cell); experiment: as above; assay type: cell-based; conditions: Homo sapiens
How it was run: as §2

[17] = test system: U87 MG (malignant glioma cell); experiment: as above; assay type: cell-based; conditions: Homo sapiens, U-87 MG
How it was run: as §2

IC50 [1]: 0.7 µg/mL (≈ 0.909 µM) | IC90 [1]: 1.11 µg/mL (≈ 1.44 µM) | IC50 [2]: 1.13 µg/mL (≈ 1.47 µM) | IC90 [2]: 4.75 µg/mL (≈ 6.17 µM) | IC50 [3]: 0.36 µg/mL (≈ 0.468 µM) | IC90 [3]: 1.58 µg/mL (≈ 2.05 µM) | IC50 [4]: 0.88 µg/mL (≈ 1.14 µM) | IC90 [4]: 3.57 µg/mL (≈ 4.64 µM) | IC50 [5]: 0.9 µg/mL (≈ 1.17 µM) | IC90 [5]: 2.1 µg/mL (≈ 2.73 µM) | IC50 [6]: 0.06 µg/mL (≈ 0.0779 µM) | IC90 [6]: 1.49 µg/mL (≈ 1.94 µM) | IC50 [7]: 1.61 µg/mL (≈ 2.09 µM) | IC90 [7]: 7.4 µg/mL (≈ 9.61 µM) | IC50 [8]: 1.96 µg/mL (≈ 2.55 µM) | IC90 [8]: 4.25 µg/mL (≈ 5.52 µM) | IC50 (MG63 (osteosarcoma)): 1.3 µg/mL (≈ 1.69 µM) | IC90 (MG63 (osteosarcoma)): 1.9 µg/mL (≈ 2.47 µM) | IC50 [9]: 1.4 µg/mL (≈ 1.82 µM) | IC90 [9]: 4.18 µg/mL (≈ 5.43 µM) | IC50 (PC-3 (prostate cancer)): 1.59 µg/mL (≈ 2.06 µM) | IC90 (PC-3 (prostate cancer)): 2.14 µg/mL (≈ 2.78 µM) | IC50 (A549 (human lung cancer)): 2.2 µg/mL (≈ 2.86 µM) | IC90 (A549 (human lung cancer)): 5.8 µg/mL (≈ 7.53 µM) | IC50 [10]: 1.3 µg/mL (≈ 1.69 µM) | IC90 [10]: 3.2 µg/mL (≈ 4.16 µM) | IC50 [11]: 2.3 µg/mL (≈ 2.99 µM) | IC90 [11]: 3.5 µg/mL (≈ 4.55 µM) | IC50 [12]: 0.94 µg/mL (≈ 1.22 µM) | IC90 [12]: 2.02 µg/mL (≈ 2.62 µM) | IC50 [13]: 1.55 µg/mL (≈ 2.01 µM) | IC90 [13]: 3.72 µg/mL (≈ 4.83 µM) | IC50 [14]: 0.73 µg/mL (≈ 0.948 µM) | IC90 [14]: 1 µg/mL (≈ 1.3 µM) | IC50 [15]: 1.15 µg/mL (≈ 1.49 µM) | IC90 [15]: 2.49 µg/mL (≈ 3.23 µM) | IC50 [16]: 2 µg/mL (≈ 2.6 µM) | IC90 [16]: 8.1 µg/mL (≈ 10.5 µM) | IC50 [17]: 0.5 µg/mL (≈ 0.649 µM) | IC90 [17]: 1.81 µg/mL (≈ 2.35 µM)
Structure (SMILES): COc1ccc2cc1Oc1ccc(cc1)C[C@H]1c3cc(c(OC)cc3CCN1C)Oc1c(OC)c(OC)c(CN(C)[C@@H](C)c3ccccc3)c3c1[C@H](C2)N(C)CC3 [BS-TE-317]
anti-PANC-1 activity increase over tetrandrine ([9]; compared with tetrandrine): 2 fold | anti-PC-3 activity increase over tetrandrine (PC-3 (prostate cancer); compared with tetrandrine): ~4 fold

IC50 [1]: 0.91 µg/mL (≈ 1.24 µM) | IC90 [1]: 1.78 µg/mL (≈ 2.42 µM) | IC50 [2]: 0.94 µg/mL (≈ 1.28 µM) | IC90 [2]: 5.75 µg/mL (≈ 7.81 µM) | IC50 [3]: 0.49 µg/mL (≈ 0.666 µM) | IC90 [3]: 3.02 µg/mL (≈ 4.1 µM) | IC50 [4]: 0.48 µg/mL (≈ 0.652 µM) | IC90 [4]: 2.55 µg/mL (≈ 3.47 µM) | IC50 [5]: 0.8 µg/mL (≈ 1.09 µM) | IC90 [5]: 1.9 µg/mL (≈ 2.58 µM) | IC50 [6]: 0.08 µg/mL (≈ 0.109 µM) | IC90 [6]: 3.63 µg/mL (≈ 4.93 µM) | IC50 [7]: 2.25 µg/mL (≈ 3.06 µM) | IC90 [7]: 19.1 µg/mL (≈ 25.9 µM) | IC50 [8]: 3.51 µg/mL (≈ 4.77 µM) | IC90 [8]: 9.8 µg/mL (≈ 13.3 µM) | IC50 (MG63 (osteosarcoma)): 1.1 µg/mL (≈ 1.49 µM) | IC90 (MG63 (osteosarcoma)): 3.2 µg/mL (≈ 4.35 µM) | IC50 [9]: 2.6 µg/mL (≈ 3.53 µM) | IC90 [9]: 9.14 µg/mL (≈ 12.4 µM) | IC50 (PC-3 (prostate cancer)): 2.01 µg/mL (≈ 2.73 µM) | IC90 (PC-3 (prostate cancer)): 3.84 µg/mL (≈ 5.22 µM) | IC50 (A549 (human lung cancer)): 4.4 µg/mL (≈ 5.98 µM) | IC90 (A549 (human lung cancer)): 16 µg/mL (≈ 21.7 µM) | IC50 [10]: 1.4 µg/mL (≈ 1.9 µM) | IC90 [10]: 4.5 µg/mL (≈ 6.11 µM) | IC50 [11]: 2.8 µg/mL (≈ 3.8 µM) | IC90 [11]: 6.6 µg/mL (≈ 8.97 µM) | IC50 [12]: 1.48 µg/mL (≈ 2.01 µM) | IC90 [12]: 4.31 µg/mL (≈ 5.86 µM) | IC50 [13]: 0.81 µg/mL (≈ 1.1 µM) | IC90 [13]: 1.24 µg/mL (≈ 1.68 µM) | IC50 [14]: 1.78 µg/mL (≈ 2.42 µM) | IC90 [14]: 6.73 µg/mL (≈ 9.14 µM) | IC50 [15]: 0.69 µg/mL (≈ 0.938 µM) | IC90 [15]: 1.71 µg/mL (≈ 2.32 µM) | IC50 [16]: 3.5 µg/mL (≈ 4.76 µM) | IC90 [16]: > 16 µg/mL | IC50 [17]: 0.57 µg/mL (≈ 0.775 µM) | IC90 [17]: 2.51 µg/mL (≈ 3.41 µM)
Structure (SMILES): COc1ccc2cc1Oc1ccc(cc1)C[C@H]1c3cc(c(OC)cc3CCN1C)Oc1c(OC)c(OC)c(CN3CCCC(O)C3)c3c1[C@H](C2)N(C)CC3 (some centres unmarked) [BS-TE-321]

IC50 [1]: 0.95 µg/mL (≈ 1.28 µM) | IC90 [1]: 2.13 µg/mL (≈ 2.86 µM) | IC50 [2]: 1.28 µg/mL (≈ 1.72 µM) | IC90 [2]: 9 µg/mL (≈ 12.1 µM) | IC50 [3]: 0.21 µg/mL (≈ 0.282 µM) | IC90 [3]: 2.16 µg/mL (≈ 2.9 µM) | IC50 [4]: 1.23 µg/mL (≈ 1.65 µM) | IC90 [4]: 4.6 µg/mL (≈ 6.18 µM) | IC50 [5]: 1.5 µg/mL (≈ 2.01 µM) | IC90 [5]: 4.5 µg/mL (≈ 6.04 µM) | IC50 [6]: 0.12 µg/mL (≈ 0.161 µM) | IC90 [6]: 3.88 µg/mL (≈ 5.21 µM) | IC50 [7]: 3.6 µg/mL (≈ 4.83 µM) | IC90 [7]: 23 µg/mL (≈ 30.9 µM) | IC50 [8]: 2.49 µg/mL (≈ 3.34 µM) | IC90 [8]: 5.59 µg/mL (≈ 7.5 µM) | IC50 (MG63 (osteosarcoma)): 2.6 µg/mL (≈ 3.49 µM) | IC90 (MG63 (osteosarcoma)): 5.5 µg/mL (≈ 7.38 µM) | IC50 [9]: 2.46 µg/mL (≈ 3.3 µM) | IC90 [9]: 7.1 µg/mL (≈ 9.53 µM) | IC50 (PC-3 (prostate cancer)): 1.88 µg/mL (≈ 2.52 µM) | IC90 (PC-3 (prostate cancer)): 3.83 µg/mL (≈ 5.14 µM) | IC50 (A549 (human lung cancer)): 6.2 µg/mL (≈ 8.32 µM) | IC90 (A549 (human lung cancer)): 16 µg/mL (≈ 21.5 µM) | IC50 [10]: 3.2 µg/mL (≈ 4.3 µM) | IC90 [10]: 8 µg/mL (≈ 10.7 µM) | IC50 [11]: 4.8 µg/mL (≈ 6.44 µM) | IC90 [11]: 10.4 µg/mL (≈ 14 µM) | IC50 [12]: 1.2 µg/mL (≈ 1.61 µM) | IC90 [12]: 3.89 µg/mL (≈ 5.22 µM) | IC50 [13]: 1.33 µg/mL (≈ 1.79 µM) | IC90 [13]: 3.88 µg/mL (≈ 5.21 µM) | IC50 [14]: 3.04 µg/mL (≈ 4.08 µM) | IC90 [14]: 8 µg/mL (≈ 10.7 µM) | IC50 [15]: 1.07 µg/mL (≈ 1.44 µM) | IC90 [15]: 2.6 µg/mL (≈ 3.49 µM) | IC50 [16]: 8 µg/mL (≈ 10.7 µM) | IC90 [16]: > 16 µg/mL | IC50 [17]: 0.98 µg/mL (≈ 1.32 µM) | IC90 [17]: 4.02 µg/mL (≈ 5.4 µM)
Structure (SMILES): COc1ccc2cc1Oc1ccc(cc1)C[C@H]1c3cc(c(OC)cc3CCN1C)Oc1c(OC)c(OC)c(CN3CCC(C#N)CC3)c3c1[C@H](C2)N(C)CC3 [BS-TE-323]

— patent publication US9133207B2, “Tetrandrine derivatives with substituted 5-carbon, preparation method and use thereof” (Hangzhou Bensheng Pharmaceutical Co., Ltd., priority 2011, dated 2015)
